Activity calls are given as the source filed them. The rule behind the calls is not given here.
Target: GTP-binding nuclear protein Ran (Homo sapiens) + Importin subunit beta-1 (Homo sapiens) (UniProt P62826+Q14974)
Test: RanGTP/importin-beta interaction disruptors – biochemical, plate reader, dry powder, dose response (AID 493048)
Settings: biochemical RanGTP-importin-beta complex

`CCCN(CCC)c1nc(N2CCNCC2)c2ccccc2n1` was tested, and the “activity change, negative = inhibition” value (at 100 µM (top of the series)) was “inactive”.

With `CCNc1nc(N2CCCC2)nc2ccccc12` the “activity change, negative = inhibition” value (at 100 µM (top of the series)) was “inactive”.

In the case of `c1ccc2c(N3CCCC3)nc(N3CCCC3)nc2c1`, the “activity change, negative = inhibition” value (at 100 µM (top of the series)) is reported as “inactive”.

Work on `CC1=C(C(=O)OCC2CCCO2)C(c2ccccc2OC(C)C)C2C(=O)CC(c3ccco3)CC2=N1` (stereo unspecified) yielded an AC50 of 10.3 µM.

`CC1(C)CCC(c2ccc(Cl)cc2)=C(CN2CCN(c3ccc(C(=O)NS(=O)(=O)c4ccc(N[C@H](CCN5CCOCC5)CSc5ccccc5)c(S(=O)(=O)C(F)(F)F)c4)cc3)CC2)C1` was tested, and the “activity change, negative = inhibition” value (at 100 µM (top of the series)) was “inactive”.

For `c1ccc2c(N3CCOCC3)nc(N3CCOCC3)nc2c1`, the “activity change, negative = inhibition” value (at 100 µM (top of the series)) was “inactive”.

`Cc1cccc(C)c1NC(=O)C1C(=O)c2sccc2N(C)S1(=O)=O` (stereo unspecified) was tested, and the “activity change, negative = inhibition” value (at 100 µM (top of the series)) was “inactive”.

Work on `COc1ccc(CCNC(=O)c2cc3c(=O)n4cccc(C)c4nc3n(CCCN3CCOCC3)c2=N)cc1` yielded an AC50 of 9.68 µM.

`O=C(O)Cn1cc(/C=C2\SC(=O)N(CC(=O)N3CCCCCC3)C2=O)c2ccccc21` was tested, and the AC50 was 90.9 µM.

For `COc1cc2nc(N3CCCC3)nc(N3CCCC3)c2cc1OC`, the “activity change, negative = inhibition” value (at 100 µM (top of the series)) was “inactive”.

With `CCCN(CCC)c1nc(NCc2ccccc2)nc2ccccc12` the “activity change, negative = inhibition” value (at 100 µM (top of the series)) was “inactive”.

In the case of `C=CCn1c(N)c(C(=O)OCCC)c2nc3ccccc3nc21`, the AC50 is reported as 36.4 µM.

With `O=c1[nH]c(N2CCCC2)nc2ccccc12` the “activity change, negative = inhibition” value (at 100 µM (top of the series)) was “inactive”.

In the case of `CC1(C)CC(=O)c2c(C(F)(F)F)nn(-c3ccc(C(N)=O)c(OC4CCC(N)CC4)c3)c2C1` (stereo unspecified), the “activity change, negative = inhibition” value (at 100 µM (top of the series)) is reported as “inactive”.

For `CCCN(CCC)c1nc(N)c2ccccc2n1`, the “activity change, negative = inhibition” value (at 100 µM (top of the series)) was “inactive”.

With `CCCN(CCC)c1nc(N2CCCC2)c2cc(OC)c(OC)cc2n1` the “activity change, negative = inhibition” value (at 26 µM (top of the series)) was “inactive”.

`CC1(C)CC(=O)c2c(C(F)(F)F)nn(-c3ccc(C(N)=O)c(NC4CCC(O)CC4)c3)c2C1` (stereo unspecified) was tested, and the “activity change, negative = inhibition” value (at 100 µM (top of the series)) was “inactive”.

In the case of `CCCN(CCC)c1nc(N2CCCC2)nc2ccccc12`, the “activity change, negative = inhibition” value (at 100 µM (top of the series)) is reported as “inactive”.

In the case of `CCN(CC)c1nc(N2CCCC2)nc2ccccc12`, the “activity change, negative = inhibition” value (at 100 µM (top of the series)) is reported as “inactive”.

For `C[C@@H](Nc1nc(N2CCCC2)nc2ccccc12)c1ccccc1`, the “activity change, negative = inhibition” value (at 100 µM (top of the series)) was “inactive”.

`COc1ccc(-c2cc(C(F)(F)F)n3nc(N)nc3n2)cc1` was tested, and the AC50 was 61.5 µM.

For `C[C@H](Nc1nc(Cl)nc2ccccc12)c1ccccc1`, the “activity change, negative = inhibition” value (at 100 µM (top of the series)) was “inactive”.

With `c1ccc(CNc2nc(N3CCCC3)nc3ccccc23)cc1` the “activity change, negative = inhibition” value (at 100 µM (top of the series)) was “inactive”.

With `CSc1ccc(/C=C(/Sc2nnc(-c3ccccc3)o2)C(=O)O)cc1` the “activity change, negative = inhibition” value (at 100 µM (top of the series)) was “inactive”.

For `Cc1cc(Nc2ccc(C(F)(F)F)cc2)n2ncnc2n1`, the “activity change, negative = inhibition” value (at 100 µM (top of the series)) was “inactive”.

In the case of `CCCN(CCC)c1nc(N2CCOCC2)nc2ccccc12`, the “activity change, negative = inhibition” value (at 100 µM (top of the series)) is reported as “inactive”.

`CC1(C)CC(=O)c2c(C(F)(F)F)nn(-c3ccc(C(N)=O)c(NC4CCC(OC(=O)CN)CC4)c3)c2C1` (stereo unspecified) was tested, and the “activity change, negative = inhibition” value (at 100 µM (top of the series)) was “inactive”.

With `CC(Nc1nc(N2CCCC2)nc2ccccc12)c1ccccc1` (stereo unspecified) the “activity change, negative = inhibition” value (at 100 µM (top of the series)) was “inactive”.

In the case of `CCCN(CCC)c1nc(Cl)nc2ccccc12`, the “activity change, negative = inhibition” value (at 100 µM (top of the series)) is reported as “inactive”.

For `CC(C)SCC(=O)Nc1ncc2c(n1)-c1ccccc1CC2`, the AC50 was 37.3 µM.

For `Clc1nc(NCc2ccccc2)c2ccccc2n1`, the “activity change, negative = inhibition” value (at 100 µM (top of the series)) was “inactive”.

For `CCCN(CCC)c1nc(N2CCCC2)nc2cc(OC)c(OC)cc12`, the “activity change, negative = inhibition” value (at 50 µM (top of the series)) was “inactive”.

For `C[C@@H](Nc1nc(Cl)nc2ccccc12)c1ccccc1`, the “activity change, negative = inhibition” value (at 100 µM (top of the series)) was “inactive”.

In the case of `COc1cc(OC)cc(C(=O)NCCNc2nc3cc(C)cc(C)c3cc2C#N)c1`, the AC50 is reported as 12.9 µM.

In the case of `Cc1cccc(-n2c(C)cc(/C=C3/C(=N)N4N=C(CC(C)C)SC4=NC3=O)c2C)c1`, the AC50 is reported as 28.2 µM.

`C[C@H](Nc1nc(N2CCCC2)nc2ccccc12)c1ccccc1` was tested, and the “activity change, negative = inhibition” value (at 100 µM (top of the series)) was “inactive”.

Reference: PubChem BioAssay AID493048 (Broad Institute, 2011)
